The values below come from paper PMC7747594, “Protease-activated receptor-2 ligands reveal orthosteric and allosteric mechanisms of receptor inhibition” (Communications Biology, 2020).

Where two headings read alike, the source gives them in different places.

Assay [1] has as its target T1, hPAR2 (Homo sapiens, UniProt P55085).
T1 sequence (P55085 26-397): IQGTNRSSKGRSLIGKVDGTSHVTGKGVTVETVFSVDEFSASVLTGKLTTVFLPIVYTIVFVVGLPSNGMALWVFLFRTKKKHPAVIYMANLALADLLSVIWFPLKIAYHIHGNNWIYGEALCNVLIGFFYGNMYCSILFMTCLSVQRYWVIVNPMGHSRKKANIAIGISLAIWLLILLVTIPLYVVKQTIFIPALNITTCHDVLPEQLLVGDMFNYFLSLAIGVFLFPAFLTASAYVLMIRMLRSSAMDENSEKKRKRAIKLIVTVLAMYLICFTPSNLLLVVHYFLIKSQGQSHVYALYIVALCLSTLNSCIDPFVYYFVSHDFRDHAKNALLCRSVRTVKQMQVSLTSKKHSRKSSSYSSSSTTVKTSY
Put plainly: Radiolabelled competition binding assay against [^3H]-GB110 on HEKexpi293F membranes. The arrangement: expressed in transfected cells. Here is the method: The reaction was then filtered through 0.5% PEI-coated filter plates using a BiomekFX. The filter plate was then dried for 1 h at 50 °C. Scintillation fluid was added to each well, before reading the plate in a Microbeta reader.
(§1) Binding data were analysed using the One site – Fit Ki model in GraphPad Prism 8 (GraphPad Software) to determine binding affinity. Pharmacology in vitro potency data was analysed with a 4-parameter logistic fit using the equation y = Bottom + (Top − Bottom)/[…] where y is the response, x is the 10-logarithm of the drug concentration, Bottom is no response and Top is full response in GraphPad Prism 8 or Genedata Screener (Genedata). pEC50 and pIC50 data are presented as mean ± standard error of the mean (s.e.m.) derived from the number of independent experiments stated. Schild slope analysis was calculated using Graphpad Prism 8 Gaddum/Schild EC50 global fitting (shared model parameters between all data sets) competitive model. The most rigorous method for quantifying agonist-antagonist interactions is to globally fit the Gaddum/Shild model to all agonist dose–response curves. Schild slope quantifies the shifts in agonist response in the presence of antagonist, a Schild slope of 1 indicates the antagonist is competitive and extra-sum-of-squares F-test (p < 0.05) was used to compare the calculated Schild slope against a hypothetical Schild slope of 1. […] The relative activity was calculated using (EmaxEC50’)/(Emax’EC50) with the Hill slope help constant at 1. EC50’ and Emax’ denote the EC50 and Emax in the absence of allosteric modulator, while EC50 and Emax denote those measured in the presence of allosteric modulator. When the Hill slope = 1, the relative activity plot approaches an asymptote corresponding to the estimate of the γ value.

The target in a further assay is T2, rat PAR2 (Rattus norvegicus, UniProt Q63645).
T2 construct: a rat KNRK cell line with endogenous expression of rat PAR2; host or cells: rat KNRK cells
T2 sequence (Q63645 26-397): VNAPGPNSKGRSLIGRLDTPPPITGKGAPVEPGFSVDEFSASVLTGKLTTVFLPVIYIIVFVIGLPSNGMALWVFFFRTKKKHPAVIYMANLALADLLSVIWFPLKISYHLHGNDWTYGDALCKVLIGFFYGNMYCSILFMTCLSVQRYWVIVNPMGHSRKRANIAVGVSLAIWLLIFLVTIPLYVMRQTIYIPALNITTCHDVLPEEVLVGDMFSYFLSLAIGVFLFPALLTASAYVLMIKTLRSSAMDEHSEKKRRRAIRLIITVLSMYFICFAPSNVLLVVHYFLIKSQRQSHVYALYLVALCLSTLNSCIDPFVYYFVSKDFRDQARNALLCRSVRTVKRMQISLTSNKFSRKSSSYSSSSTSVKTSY
Put plainly: Ca^2+ flux assay, inhibition of SLIGRL-NH2 activation in rat KNRK cells. The format is cell-based.

For assay [2], the target named is T1, hPAR2. Put plainly: β-arrestin-2 recruitment assay, inhibition of SLIGRL-NH2 in U2OS-hPAR2 cells. Type of assay: cell-based. Here is the method:
β‐Arrestin-2 recruitment was measured in U2OS-hPAR2 cells using the DiscoverX assay kit, according to the manufacturer’s instructions. Briefly, cells were seeded in McCoy’s 5A media containing 10% FBS at 4000 cells per well in 384-well plates and incubated overnight at 37 °C, 5% CO2. Antagonist compounds (30 µM–1 nM) were incubated with the cells for 30 min prior to the addition of agonist SLIGRL-NH2 (10 µM) at EC80 and further incubation for 90 min at 37 °C. Working detection solution (12 µl) was then added to each well, incubated at room temperature in the dark for 60 min and the chemiluminescence signal read on the EnVision microplate reader (Perkin Elmer).
as §1, with “The most rigorous method for quantifying agonist-antagonist interactions is to globally fit the Gaddum/Shild model to all agonist dose–response curves.” left out

Assay [3] deals with T1, hPAR2. Put plainly: IP1 HTRF assay, inhibition of SLIGRL-NH2 in 1321N1-hPAR2 cells. Type of assay: cell-based. Here is the method: Inhibition of PAR2-induced inositol-1-phosphate (IP1) production was measured in 1321N1-hPAR2 cells using IP-One Gq HTRF assay kit (Cisbio). […] Next, EC80 of SLIGRL-NH2 (70 µM) supplemented with 50 mM LiCl was added and incubated for 60 min at 37 °C. Detection of IP1 production was performed according to the manufacturer’s protocol and HTRF was measured using PHERAstar (BMG LabTech). Data were normalised to [IP1] using a standard curve.
as §1, with “The most rigorous method for quantifying agonist-antagonist interactions is to globally fit the Gaddum/Shild model to all agonist dose–response curves.” left out

The mark [4] stands for this setting: SLIGRL-NH2, rat PAR2 in KNRK cells, mean ± s.e.m., read-out: Ca^2+ flux (rPAR2) pIC50 (converted).
Where [5] appears, read: SLIGRL-NH2, U2OS-hPAR2, mean ± s.e.m., read-out: β-arrestin (hPAR2) pIC50 (converted).
The mark [6] stands for this setting: SLIGRL-NH2, 1321N1-hPAR2 cells, mean ± s.e.m., read-out: IP1 (hPAR2) pIC50 (converted).

`CNC(=O)[C@H]1CC[C@@H](NC(=O)[C@H](CC2CCCCC2)NC(=O)c2cn(Cc3ccccc3)nn2)c2ccccc21` [AZ2429]: the remaining binding at 100 µM on hPAR2 [1] (2 h, log [compound],M -4, individual data points, read-out: specific binding of [^3H]-GB110, Fig 2b source data) turned out to be 19.6%. Further, the remaining binding at 33.3 µM on hPAR2 [1] (2 h, log [compound],M -4.47756, individual data points, read-out: specific binding of [^3H]-GB110, Fig 2b source data) is 10.5%. Also, on hPAR2 [1] (2 h, log [compound],M -5.4318, individual data points, read-out: specific binding of [^3H]-GB110, Fig 2b source data), the remaining binding at 3.7 µM amounted to 11.5%. Also, the remaining binding at […] at hPAR2 [1] (2 h, log [compound],M -5.91009, individual data points, read-out: specific binding of [^3H]-GB110, Fig 2b source data) is 15.9%. In addition, the remaining binding at 0.0152 µM at hPAR2 [1] (2 h, log [compound],M -7.81816, individual data points, read-out: specific binding of [^3H]-GB110, Fig 2b source data) amounted to 88%. Besides, the remaining binding at 0.00508 µM at hPAR2 [1] (2 h, log [compound],M -8.29414, individual data points, read-out: specific binding of [^3H]-GB110, Fig 2b source data) turned out to be 97.4%. Further, the remaining binding at 0.00169 µM on hPAR2 [1] (2 h, log [compound],M -8.77211, individual data points, read-out: specific binding of [^3H]-GB110, Fig 2b source data) came to 99.3%. Further, the remaining binding at 0.000565 µM on hPAR2 [1] (2 h, log [compound],M -9.24795, individual data points, read-out: specific binding of [^3H]-GB110, Fig 2b source data) is 105%. The Ki on hPAR2 [1] ([3H]-GB110, earlier manuscript version quoted by reviewer, read-out: Ki) came to 0.063 µM.
Turning to `C[C@@H](C1CCCCC1)n1c(-c2cc3c(cc2Br)OCO3)nc2cc(C(=O)Nc3ccncc3)ccc21` [AZ2623], the IC50 at rat PAR2 (setting [4]) was 0.00501 µM; on hPAR2 [2] (setting [5]), 0.49 µM; at hPAR2 [3] (setting [6]), 0.0813 µM.
Regarding `C[C@@H](C1CCCCC1)n1c(-c2cc3c(cc2Br)OCO3)nc2cc(C(=O)Nc3ccc(C#N)cc3)ccc21` [AZ3451], the IC50 on rat PAR2 (setting [4]) was 0.00316 µM; on hPAR2 [2] (setting [5]), 0.0871 µM; on hPAR2 [3] (setting [6]), 0.0224 µM. Moreover, the remaining activity at 0.1001 µM on hPAR2 [3] (log[compound], M -6.99957, individual data points, read-out: SLIGRL-NH2 IP1 formation, antagonist response, Fig 1d source data) came out at 15.9%. Also, at hPAR2 [3] (log[compound], M -7.49976, individual data points, read-out: SLIGRL-NH2 IP1 formation, antagonist response, Fig 1d source data), the remaining activity at 0.03164 µM was found to be 43.6%. Also, the remaining activity at 0.01001 µM on hPAR2 [3] (log[compound], M -7.99957, individual data points, read-out: SLIGRL-NH2 IP1 formation, antagonist response, Fig 1d source data) turned out to be 71.9%. The remaining activity at 0.003165 µM on hPAR2 [3] (log[compound], M -8.49963, individual data points, read-out: SLIGRL-NH2 IP1 formation, antagonist response, Fig 1d source data) amounted to 100%. The Ki at hPAR2 [1] (against [^3H]-GB110, HEKexpi293F membranes expressing hPAR2, mean ± s.e.m., read-out: Competition binding pKi (converted)) was 0.0126 µM.
Consider `CCCc1cc(F)ccc1C(O)c1ncc[nH]1` (stereo not shown) [AZ8838], for which the values for the IC50 against rat PAR2, against hPAR2 [2] and against hPAR2 [3] were 5.01 µM, 0.794 µM and 1.45 µM, respectively. In addition, the remaining activity at 3.163 µM at hPAR2 [3] (read-out: SLIGRL-NH2 IP1 formation, antagonist response, Fig 1d source data, log[compound], M -5.4999, individual data points) came out at 40.7%. Moreover, on hPAR2 [3] (read-out: SLIGRL-NH2 IP1 formation, antagonist response, Fig 1d source data, log[compound], M -6, individual data points), the remaining activity at 1 µM came out at 54.4%. Moreover, the remaining activity at 0.3164 µM at hPAR2 [3] (read-out: SLIGRL-NH2 IP1 formation, antagonist response, Fig 1d source data, log[compound], M -6.49976, individual data points) was 79.9%. At hPAR2 [3] (read-out: SLIGRL-NH2 IP1 formation, antagonist response, Fig 1d source data, log[compound], M -7.49976, individual data points), the remaining activity at 0.03164 µM was found to be 108%. At hPAR2 [1], the Ki is 0.398 µM.
